Where “and” joins values, the source holds several entries; their conditions need not be identical. Identical values can stand only once.
System: left anterior descending coronary artery (LAD) occlusion, Sprague-Dawley rats
Assay: Ventricular arrhythmias (Lown classification, VPB-Score) during final permanent LAD occlusion
Type: in vivo, rat

SMILES	rats with class IIIa arrhythmias (Lown) (5 DAYS RIP, during FPO)	rats with class IVb arrhythmias (Lown) (5 DAYS RIP, during FPO)	rats with class 0 arrhythmias (Lown) (rat, in vivo)	rats with class IIIa arrhythmias (Lown) (rat, in vivo)	rats with class IVb arrhythmias (Lown) (rat, in vivo)
CC(=O)Oc1ccccc1C(=O)O [ASA, acetyl salicylic acid]	16.7%	83.3%			
O=[N+]([O-])OCC(CO[N+](=O)[O-])O[N+](=O)[O-] [NTG, nitroglycerin]			57.1%	14.3%	85.7% and 42.9%
